Measured values: article PMC5667636 (Antiviral Research, 2017)

Legend:
[1] = tested on: neuraminidase (NA) of A(H3N2) viruses; format: biochemical, influenza A(H3N2) virus
[2] = tested on: neuraminidase (NA) of B/Yamagata-lineage viruses; format: biochemical, influenza B/Yamagata-lineage virus
[3] = tested on: neuraminidase (NA) of A(H1N1)pdm09 viruses; format: biochemical, influenza A(H1N1)pdm09 virus
[4] = tested on: neuraminidase (NA) of B/Victoria-lineage viruses; format: biochemical, influenza B/Victoria-lineage virus

SMILES	IC50 fold-change [1]	IC50 fold-change compared to reference median IC50 values [1]	inhibition phenotype in NAI assay (NI/RI/HRI) [2]	inhibition phenotype in NAI assay (NI/RI/HRI) [3]	IC50 fold-change [4]	inhibition phenotype in NAI assay (NI/RI/HRI) [1]
CCOC(=O)C1=C[C@@H](OC(CC)CC)[C@H](NC(C)=O)[C@@H](N)C1 [Oseltamivir, oseltamivir]	87 fold	87 fold	borderline RI			
CC(=O)N[C@H]1[C@H]([C@H](O)[C@H](O)CO)OC(C(=O)O)=C[C@@H]1N=C(N)N [Zanamivir, zanamivir]	32 fold	32 fold		borderline RI	14–17 fold	
[H]/N=C(\N)N[C@H]1C=C(C(=O)O)O[C@@H]([C@H](OC)[C@H](O)CO)[C@@H]1NC(C)=O [Laninamivir, laninamivir]						borderline NI
